Source: a compilation of properties of binary mixtures (doi:10.1016/j.molliq.2020.113457)

Test: xn = mol fraction of the nth substance listed
Conditions: 101 kPa

C=CC(=O)OC + CCCC[n+]1ccn(C)c1.F[B-](F)(F)F
Conditions	speed of sound [m/s]	viscosity [mPa·s]
293.15 K, x2 = 0	1204.7	0.502
293.15 K, x2 = 0.0694	1238.9	0.966
293.15 K, x2 = 0.1889	1296	3.853
293.15 K, x2 = 0.239	1318.8	6.24
293.15 K, x2 = 0.3354	1360.5	12.75
293.15 K, x2 = 0.4317	1399.7	21.82
293.15 K, x2 = 0.5005	1426	29.86
293.15 K, x2 = 0.5693	1451	39.21
293.15 K, x2 = 0.6532	1479.7	52.4
293.15 K, x2 = 0.737	1506.4	67.4
293.15 K, x2 = 0.7927	1523	78.5
293.15 K, x2 = 0.8484	1538.7	90.5
298.15 K, x2 = 0.0694	1218.7	0.725
298.15 K, x2 = 0.1387	1252.9	1.415
298.15 K, x2 = 0.1889	1276.8	2.577
298.15 K, x2 = 0.239	1300	4.295
298.15 K, x2 = 0.3354	1342.7	9.16
298.15 K, x2 = 0.4317	1382.7	16.07
298.15 K, x2 = 0.5005	1409.6	22.26
298.15 K, x2 = 0.5693	1435.3	29.5
298.15 K, x2 = 0.6532	1464.7	39.74
298.15 K, x2 = 0.737	1492.2	51.5
298.15 K, x2 = 0.7927	1509.3	60.2
298.15 K, x2 = 0.8484	1525.6	69.6
298.15 K, x2 = 0.9242	1546.4	83.5
303.15 K, x2 = 0	1162.3	0.428
303.15 K, x2 = 0.0694	1198.4	0.555
303.15 K, x2 = 0.1387	1233.4	–
303.15 K, x2 = 0.1889	1257.7	1.493
303.15 K, x2 = 0.239	1281.1	2.654
303.15 K, x2 = 0.5005	1393.8	16.05
303.15 K, x2 = 0.5693	1420.5	21.63
303.15 K, x2 = 0.6532	1451.2	29.58
303.15 K, x2 = 0.737	1479.5	38.8
303.15 K, x2 = 0.7927	1496.9	45.62
303.15 K, x2 = 0.8484	1514	53
303.15 K, x2 = 0.9242	1534.4	63.9
308.15 K, x2 = 0	1139.1	0.392
308.15 K, x2 = 0.0694	1176.1	0.448
308.15 K, x2 = 0.1387	1211.5	–
308.15 K, x2 = 0.1889	1236.2	–
308.15 K, x2 = 0.239	1260.5	–
308.15 K, x2 = 0.3354	1305.3	3.796
308.15 K, x2 = 0.4317	1347.7	7.6
308.15 K, x2 = 0.5005	1376.1	11.15
308.15 K, x2 = 0.5693	1404.1	15.41
308.15 K, x2 = 0.6532	1435.8	21.55
308.15 K, x2 = 0.737	1465.1	28.73
308.15 K, x2 = 0.7927	1483.3	34.08
308.15 K, x2 = 0.9242	1521	48.5
313.15 K, x2 = 0.0694	1155.4	0.378
313.15 K, x2 = 0.1889	1216.6	–
313.15 K, x2 = 0.3354	1286.1	2.165
313.15 K, x2 = 0.4317	1329.6	5.02
313.15 K, x2 = 0.5005	1359.4	7.79
313.15 K, x2 = 0.5693	1388.1	11.15
313.15 K, x2 = 0.6532	1420.6	16.05
313.15 K, x2 = 0.737	1452.4	21.85
313.15 K, x2 = 0.7927	1471.1	26.2
313.15 K, x2 = 0.8484	1488.1	30.93
313.15 K, x2 = 0.9242	1510.3	38.01
318.15 K, x2 = 0.0694	1134.5	0.355
318.15 K, x2 = 0.1387	1170.8	–
318.15 K, x2 = 0.1889	1195.7	–
318.15 K, x2 = 0.239	1220	–
318.15 K, x2 = 0.4317	1310.6	3.27
318.15 K, x2 = 0.5005	1341.6	5.53
318.15 K, x2 = 0.5693	1371.6	8.34
318.15 K, x2 = 0.737	1437.5	17.48
318.15 K, x2 = 0.7927	1457.2	21.23
318.15 K, x2 = 0.8484	1475.3	25.34

CCCC[n+]1ccn(C)c1.F[B-](F)(F)F + C=CC(=O)OC
x1 = 1
Conditions	speed of sound [m/s]	viscosity [mPa·s]
293.15 K	1576.9	127.6
298.15 K	1565.8	98.9
308.15 K	1542.7	58.4
318.15 K	1518	38.72
